Assay results taken from ChEMBL document CHEMBL1201862, “PubChem BioAssay data set” (2004).
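Dose response: 5 concentrations. Exposure: 48 h. Format: 96-well plates. Endpoint: linear interpolation; highest concentration if not reached. At the GI50, growth is halved.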 Calls of active or inactive are those of the source. Cut-off read from the data, not from the text of the source: active = GI50 up to about 1.1 µM and inactive = higher.

Legend:
Test in all cases: NCI-60 cell line screen, 48 h
MCF7 = system: MCF7
OVCAR-3 = system: OVCAR-3
SR = system: SR
SK-MEL-28 = system: SK-MEL-28
OVCAR-4 = system: OVCAR-4
CCRF-CEM = system: CCRF-CEM
T47D = system: T47D
SF-295 = system: SF-295
CAKI-1 = system: CAKI-1
HOP-92 = system: HOP-92
RXF 393 = system: RXF 393
MDA-MB-435 = system: MDA-MB-435
SN12C = system: SN12C
UACC-62 = system: UACC-62
SK-MEL-2 = system: SK-MEL-2
RPMI-8226 = system: RPMI-8226
SK-MEL-5 = system: SK-MEL-5
NCI/ADR-RES = system: NCI/ADR-RES
IGROV-1 = system: IGROV-1
SF-268 = system: SF-268

Measured: GI50

CN(C)c1cccc(NC2=NCCO2)c1
inactive: MCF7 50.5 µM | OVCAR-3 59.4 µM | SR 30.3 µM | SK-MEL-28 42.8 µM | OVCAR-4 > 100 µM | CCRF-CEM 33 µM | T47D 69.2 µM | SF-295 > 100 µM | CAKI-1 > 100 µM | HOP-92 12.2 µM | RXF 393 > 100 µM | MDA-MB-435 19.8 µM | SN12C 52.5 µM | UACC-62 50.7 µM | SK-MEL-2 14.9 µM | RPMI-8226 65.5 µM | SK-MEL-5 43.6 µM | NCI/ADR-RES 39.7 µM | IGROV-1 > 100 µM | SF-268 92 µM

Cc1ccc(C(=N)Nc2ccccc2)cc1
inactive: MCF7 41.9 µM | OVCAR-3 > 100 µM | SR > 100 µM | SK-MEL-28 > 100 µM | OVCAR-4 > 100 µM | CCRF-CEM 52.2 µM | T47D > 100 µM | SF-295 > 100 µM | CAKI-1 > 100 µM | HOP-92 > 100 µM | RXF 393 > 100 µM | MDA-MB-435 > 100 µM | SN12C > 100 µM | UACC-62 > 100 µM | SK-MEL-2 > 100 µM | RPMI-8226 > 100 µM | SK-MEL-5 89.7 µM | NCI/ADR-RES > 100 µM | IGROV-1 > 100 µM | SF-268 > 100 µM
